Earlier results on 3 molecules are cited in PubChem BioAssay AID1259409 (Chemical Carcinogenesis Research Information System (CCRIS), 2018).

The series deals with rodent chemically induced tumor inhibition, incidence and multiplicity. Kind of series: CCRIS tumor inhibitor studies. Particulars: Dose [Inhibitor]: 0.

For the molecule `COc1c(N2C[C@@H]3CCCN[C@@H]3C2)c(F)cc2c(=O)c(C(=O)O)cn(C3CC3)c12`, the outcome (Carcinogen: N-BUTYL-N-(4-HYDROXYBUTYL)NITROSAMINE, 3817-11-6, 500 MG/KG BW/D FOR 24 WK BEGINNING 14 WK POST CARCINOGEN FIRST DOSE (STUDY DURATION: 38 WK), Route [Inhibitor]: ORAL, Species: RAT, Strain/Sex: WISTAR/MALE, FEMALE, Target Tissue: Type of Lesion: LIVER: TUMOR, Dose [Carcinogen]: 0.02% IN DRINKING WATER FOR FIRST 9 WK) is on record as 0%, 1/18 (6%), -100%, not significant; the outcome (Carcinogen: N-ETHYL-N-NITROSOUREA, 759-73-9, 500 MG/KG BW/D FOR 24 WK BEGINNING 14 WK POST CARCINOGEN FIRST DOSE (STUDY DURATION: 38 WK), Route [Inhibitor]: ORAL, Species: RAT, Strain/Sex: WISTAR/MALE, FEMALE, Target Tissue: Type of Lesion: LIVER: TUMOR, Dose [Carcinogen]: 20 MG/KG BW 1/WK FOR FIRST 10 WK) is listed as 0%, 0%, 0%, not significant; the outcome (Carcinogen: N-ETHYL-N-NITROSOUREA, 759-73-9, 500 MG/KG BW/D FOR 24 WK BEGINNING 14 WK POST CARCINOGEN FIRST DOSE (STUDY DURATION: 38 WK), Route [Inhibitor]: ORAL, Species: RAT, Strain/Sex: WISTAR/MALE, FEMALE, Target Tissue: Type of Lesion: MESENTERY: TUMOR, Dose [Carcinogen]: 20 MG/KG BW 1/WK FOR FIRST 10 WK) is reported as 0%, 1/26 (4%), -100%, not significant; the outcome (Carcinogen: N-ETHYL-N-NITROSOUREA, 759-73-9, 500 MG/KG BW/D FOR 24 WK BEGINNING 14 WK POST CARCINOGEN FIRST DOSE (STUDY DURATION: 38 WK), Route [Inhibitor]: ORAL, Species: RAT, Strain/Sex: WISTAR/MALE, FEMALE, Target Tissue: Type of Lesion: NASAL CAVITY: TUMOR, Dose [Carcinogen]: 20 MG/KG BW 1/WK FOR FIRST 10 WK) is given as 0%, 0%, 0%, not significant; the outcome (Carcinogen: N-ETHYL-N-NITROSOUREA, 759-73-9, 500 MG/KG BW/D FOR 24 WK BEGINNING 14 WK POST CARCINOGEN FIRST DOSE (STUDY DURATION: 38 WK), Route [Inhibitor]: ORAL, Species: RAT, Strain/Sex: WISTAR/MALE, FEMALE, Target Tissue: Type of Lesion: PANCREAS: TUMOR, Dose [Carcinogen]: 20 MG/KG BW 1/WK FOR FIRST 10 WK) was 0%, 0%, 0%, not significant; the outcome (Carcinogen: N-ETHYL-N-NITROSOUREA, 759-73-9, 500 MG/KG BW/D FOR 24 WK BEGINNING 14 WK POST CARCINOGEN FIRST DOSE (STUDY DURATION: 38 WK), Route [Inhibitor]: ORAL, Species: RAT, Strain/Sex: WISTAR/MALE, FEMALE, Target Tissue: Type of Lesion: SUBCUTIS: TUMOR, Dose [Carcinogen]: 20 MG/KG BW 1/WK FOR FIRST 10 WK) is listed as 0%, 0%, 0%, not significant. The “tumour outcome (control, treated, inhibition, significance)” value (Carcinogen: N-BUTYL-N-(4-HYDROXYBUTYL)NITROSAMINE, 3817-11-6, 500 MG/KG BW/D FOR 24 WK BEGINNING 14 WK POST CARCINOGEN FIRST DOSE (STUDY DURATION: 38 WK), Route [Inhibitor]: ORAL, Species: RAT, Strain/Sex: WISTAR/MALE, FEMALE, Target Tissue: Type of Lesion: URINARY BLADDER: TUMOR, Dose [Carcinogen]: 0.02% IN DRINKING WATER FOR FIRST 9 WK) is 13/18 (72%), 10/18 (56%), 22%, not significant; the “tumour outcome (control, treated, inhibition, significance)” value (Carcinogen: N-ETHYL-N-NITROSOUREA, 759-73-9, 500 MG/KG BW/D FOR 24 WK BEGINNING 14 WK POST CARCINOGEN FIRST DOSE (STUDY DURATION: 38 WK), Route [Inhibitor]: ORAL, Species: RAT, Strain/Sex: WISTAR/MALE, FEMALE, Target Tissue: Type of Lesion: AUDITORY SEBACEOUS GLAND: TUMOR, Dose [Carcinogen]: 20 MG/KG BW 1/WK FOR FIRST 10 WK) was 9/26 (35%), 4/26 (15%), 57%, not significant; the “tumour outcome (control, treated, inhibition, significance)” value (Carcinogen: N-ETHYL-N-NITROSOUREA, 759-73-9, 500 MG/KG BW/D FOR 24 WK BEGINNING 14 WK POST CARCINOGEN FIRST DOSE (STUDY DURATION: 38 WK), Route [Inhibitor]: ORAL, Species: RAT, Strain/Sex: WISTAR/MALE, FEMALE, Target Tissue: Type of Lesion: HEART: TUMOR, Dose [Carcinogen]: 20 MG/KG BW 1/WK FOR FIRST 10 WK) was 1/26 (4%), 0%, 100%, not significant; the “tumour outcome (control, treated, inhibition, significance)” value (Carcinogen: N-ETHYL-N-NITROSOUREA, 759-73-9, 500 MG/KG BW/D FOR 24 WK BEGINNING 14 WK POST CARCINOGEN FIRST DOSE (STUDY DURATION: 38 WK), Route [Inhibitor]: ORAL, Species: RAT, Strain/Sex: WISTAR/MALE, FEMALE, Target Tissue: Type of Lesion: HEMATOLYMPHORETICULAR: TUMOR, Dose [Carcinogen]: 20 MG/KG BW 1/WK FOR FIRST 10 WK) is given as 15/26 (58%), 13/26 (50%), 14%, not significant; the “tumour outcome (control, treated, inhibition, significance)” value (Carcinogen: N-ETHYL-N-NITROSOUREA, 759-73-9, 500 MG/KG BW/D FOR 24 WK BEGINNING 14 WK POST CARCINOGEN FIRST DOSE (STUDY DURATION: 38 WK), Route [Inhibitor]: ORAL, Species: RAT, Strain/Sex: WISTAR/MALE, FEMALE, Target Tissue: Type of Lesion: LARGE INTESTINE: TUMOR, Dose [Carcinogen]: 20 MG/KG BW 1/WK FOR FIRST 10 WK) was 9/26 (35%), 7/26 (27%), 23%, not significant; the “tumour outcome (control, treated, inhibition, significance)” value (Carcinogen: N-ETHYL-N-NITROSOUREA, 759-73-9, 500 MG/KG BW/D FOR 24 WK BEGINNING 14 WK POST CARCINOGEN FIRST DOSE (STUDY DURATION: 38 WK), Route [Inhibitor]: ORAL, Species: RAT, Strain/Sex: WISTAR/MALE, FEMALE, Target Tissue: Type of Lesion: MAMMARY GLAND: TUMOR, Dose [Carcinogen]: 20 MG/KG BW 1/WK FOR FIRST 10 WK) is 5/26 (19%), 2/26 (8%), 58%, not significant. The “tumour outcome (control, treated, inhibition, significance)” value is reported as 1/26 (4%), 0%, 100%, not significant (Carcinogen: N-ETHYL-N-NITROSOUREA, 759-73-9, 500 MG/KG BW/D FOR 24 WK BEGINNING 14 WK POST CARCINOGEN FIRST DOSE (STUDY DURATION: 38 WK), Route [Inhibitor]: ORAL, Species: RAT, Strain/Sex: WISTAR/MALE, FEMALE, Target Tissue: Type of Lesion: SEMINAL VESICLES: TUMOR, Dose [Carcinogen]: 20 MG/KG BW 1/WK FOR FIRST 10 WK) and 9/26 (35%), 10/26 (39%), -11%, not significant (Carcinogen: N-ETHYL-N-NITROSOUREA, 759-73-9, 500 MG/KG BW/D FOR 24 WK BEGINNING 14 WK POST CARCINOGEN FIRST DOSE (STUDY DURATION: 38 WK), Route [Inhibitor]: ORAL, Species: RAT, Strain/Sex: WISTAR/MALE, FEMALE, Target Tissue: Type of Lesion: SKIN: TUMOR, Dose [Carcinogen]: 20 MG/KG BW 1/WK FOR FIRST 10 WK).
Consider `COC1=CC(=O)[C@]2(C=C1OC)OC[C@H]1Oc3c(ccc4c3C=CC(C)(C)O4)C(=O)[C@H]12`, for which, for the setting “Carcinogen: 7,12-DIMETHYLBENZ[A]ANTHRACENE, 57-97-6, 85 NMOL 2/WK BEGINNING 1 WK POST CARCINOGEN DOSE (STUDY DURATION: 20 WK), Route [Inhibitor]: DERMAL, Species: MOUSE, Strain/Sex: ICR/FEMALE, Target Tissue: Type of Lesion: SKIN: PAPILLOMA, Dose [Carcinogen]: 390 NMOL, Promoter: 12-O-TETRADECANOYLPHORBOL-13-ACETATE, 16561-29-8”, the “tumour outcome (control, treated, inhibition, significance)” value was 100%, 20%, 80%, not calculated.
For the molecule `c1cnc2c(c1)ccc1cccnc12`, the “tumour outcome (control, treated, inhibition, significance)” value (15 MG/KG BW EVERY OTHER DAY BEGINNING 1 WK AFTER CARCINOGEN DOSING THROUGH WK 52 WK (STUDY DURATION: 52 WK), Route [Inhibitor]: INTRAPERITONEAL, Species: RAT, Strain/Sex: WISTAR/MALE, Target Tissue: Type of Lesion: STOMACH: ADENOCARCINOMA, Dose [Carcinogen]: 25 UG/ML IN DRINKING WATER FOR 25 WK, Promoter: SODIUM CHLORIDE (7647-14-5)) is listed as 19/20 (95%), 9/20 (45%), 53%, p< 0.001 and the “tumour outcome (control, treated, inhibition, significance)” value (30 MG/KG BW EVERY OTHER DAY BEGINNING 1 WK AFTER CARCINOGEN DOSING THROUGH WK 52 WK (STUDY DURATION: 52 WK), Route [Inhibitor]: INTRAPERITONEAL, Species: RAT, Strain/Sex: WISTAR/MALE, Target Tissue: Type of Lesion: STOMACH: ADENOCARCINOMA, Dose [Carcinogen]: 25 UG/ML IN DRINKING WATER FOR 25 WK, Promoter: SODIUM CHLORIDE (7647-14-5)) was 19/20 (95%), 7/20 (35%), 63%, p< 0.01.
